The source of these data is patent publication US20080318954A1, “Compounds” (Cyclacel Limited, priority 2004, published 2008).

Molecules are shown by their SMILES. “Also recorded” adds a separate entry of the source.

One may read the Ki as the dissociation constant of the complex between target and ligand, obtained from inhibition or displacement. Usually IC50 stands for the concentration that gives 50% inhibition. In general, EC50 refers to the concentration that produces a half-maximal response. One may read the fold induction as the signal under treatment as a multiple of the control signal.

In one test the target is T1, SGK (Homo sapiens, UniProt O00141).
T1 construct: Dundee University (panel)
T1 sequence (O00141 whole entry, species assumed): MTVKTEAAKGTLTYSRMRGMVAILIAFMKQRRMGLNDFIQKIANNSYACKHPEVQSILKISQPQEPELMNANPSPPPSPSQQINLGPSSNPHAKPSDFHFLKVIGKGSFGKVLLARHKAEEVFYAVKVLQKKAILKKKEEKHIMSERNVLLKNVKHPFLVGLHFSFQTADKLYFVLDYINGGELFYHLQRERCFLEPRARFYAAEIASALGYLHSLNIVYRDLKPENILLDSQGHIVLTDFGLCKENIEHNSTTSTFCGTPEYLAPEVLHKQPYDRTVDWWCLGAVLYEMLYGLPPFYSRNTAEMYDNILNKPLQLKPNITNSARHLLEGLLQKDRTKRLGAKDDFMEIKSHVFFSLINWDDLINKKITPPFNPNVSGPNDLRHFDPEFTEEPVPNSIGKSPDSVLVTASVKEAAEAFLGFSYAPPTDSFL
Description: Protein kinase panel selectivity screen, SGK. The test is classed as biochemical. To be noted: 1 μM compound; [ATP] 20 μM. The protocol:
(§1) The names of the 29 kinases comprising the selectivity screen, as well as the ATP concentrations used in each kinase case, are given in Table 5. The kinase assays were carried out as described previously.
(§2) Compound XIV at a concentration of 1 μM was screened in the 29-kinase panel (Dundee University) and the results are shown bellow in Table 6.

The next test concerns the target T2, GSK-3β (Oryctolagus cuniculus, UniProt G1T8E2).
T2 construct: isolated from a strain of E. coli that carries a clone expressing GSK-3β derived from a rabbit skeletal muscle cDNA library [34]
Description: GSK-3β kinase assay. The test is classed as biochemical, rabbit. As for the experimental part:
GSK-3 was obtained from New England Biolabs (UK) Ltd., Hitchin, Herts. The recombinant enzyme was isolated from a strain of E. coli that carries a clone expressing GSK-3β derived from a rabbit skeletal muscle cDNA library. Inhibition of GSK-3 function was assessed by measurement of phosphorylation of CREB phosphopeptide KRREILSRRPpSYR in the presence of test compounds. Using a 96-well assay format, GSK3 (7.5 U) was incubated for 30 min at 30° C. in a total volume of 25 μL in 20 mM MOPS pH 7.2, 25 mM β-glycerophosphate, 5 mM EGTA, 1 mM DTT, 1 mM […], 40 μM CREB peptide, 15 mM MgCl2 and 100 μM ATP (containing 0.25 μCi [γ-^32P]-ATP) in the presence of varying concentrations of test compound. The samples were transferred to 96-well p81 filter plates (Whatman Polyfiltronics, Kent, UK), and the plates were washed 4 times with 200 μL/well of 75 mM aq orthophosphoric acid. Scintillation liquid (50 μL) was added to each well, and incorporated radioactivity for each sample was determined using a scintillation counter (TopCount, Packard Instruments, Pangbourne, Berks, UK).

The test system of the next test is CK1. Description: Protein kinase panel selectivity screen, CK1. Format: biochemical. The conditions noted are these: 1 μM compound; [ATP] 20 μM. As for the experimental part: as §1, §2
In test [1] the test system is β-catenin in HEK293 cells. Description: β-catenin accumulation and phosphorylation in HEK293 cells. The conditions noted are these: up to 5 μM. Format: cell-based, human. The text has this: One of the possible toxicities related to GSK3 inhibition is the accumulation of β-catenin, which has been implicated in the development of colon cancer and melanoma. The effect of example compound XIV on the endogenous levels of β-catenin in HEK293 cells was studied at concentrations that are effective in activation of cellular glycogen synthase.

Test [2] concerns glycogen synthase activity in HEK293 cells. Description: Glycogen synthase (GS) assay in HEK293 cells. The test is classed as cell-based, human. The protocol: Cells on 10 cm dishes (Human Embryonic Kidney (HEK) 293 cells, L6 rat myocytes, or 3T3 mouse adipocytes) were treated with different concentrations of GSK3-inhibitors or DMSO vehicle for 90 min. Incubation medium was removed and cells were washed with ice-cold phosphate-buffered saline (PBS) prior to lysis on ice in 50 mM HEPES, pH 7.5, 10 mM EDTA, 100 mM NaF, 5 mM DTT, protease inhibitor cocktail (Sigma). After a freeze/thaw cycle the samples are sonicated for 10 sec and centrifuged at 15,000 g for 10 min at 4° C. Lysate supernatants were snap-frozen on liquid nitrogen and stored at −80° C. Lysates were assayed for glycogen synthase activity in buffer (50 mM Tris-HCl, pH 7.8, 20 mM EDTA, 25 mM NaF, 5 mM DTT, 1% glycogen, 0.3 mM UDP-glucose and 0.06 μCi of [^14C]-UDP-glucose in the presence of 0.1 or 10 mM glucose-6-phosphate. The reaction was carried out for 30 min at 30° C. 70 μL of the reaction mixture (total volume 90 μL) were transferred to a GFC 96-well filter plate (bottom sealed with foil), containing 140 μL 96% ethanol. The GFC plate was incubated for 1 h on ice and than washed with 66% ethanol. To each well 100 μL scintillant liquid was added and the radioactivity of the samples was measured using a scintillation counter (Topcount, HP). Data are expressed as -fold increase in glycogen synthase activity ratios over those of control samples.

Another test has as its system p70S6K. Description: Protein kinase panel selectivity screen, p70S6K. Format: biochemical. To be noted: 1 μM compound; [ATP] 20 μM. As for the experimental part:
as §1, §2

For the next test, the system named is PKA. Description: Protein kinase panel selectivity screen, PKA. The conditions noted are these: 1 μM compound; [ATP] 5 μM. The test is classed as biochemical. The protocol: as §1, §2
A further test addresses T3, NEK6 (Homo sapiens, UniProt Q9HC98).
T3 construct: Dundee University (screening panel)
Description: Protein kinase panel selectivity screen, NEK6. The test is classed as biochemical. To be noted: 1 μM compound; [ATP] 50 μM. As for the experimental part: as §1, §2

The test system of another test is ROCK-II. Description: Protein kinase panel selectivity screen, ROCK-II. The test is classed as biochemical. To be noted: 1 μM compound; [ATP] 20 μM. The protocol: as §1, §2
The target in a further test is T4, CSK (Homo sapiens, UniProt P41240).
T4 construct: Dundee University (screening panel)
T4 sequence (P41240 whole entry, species assumed): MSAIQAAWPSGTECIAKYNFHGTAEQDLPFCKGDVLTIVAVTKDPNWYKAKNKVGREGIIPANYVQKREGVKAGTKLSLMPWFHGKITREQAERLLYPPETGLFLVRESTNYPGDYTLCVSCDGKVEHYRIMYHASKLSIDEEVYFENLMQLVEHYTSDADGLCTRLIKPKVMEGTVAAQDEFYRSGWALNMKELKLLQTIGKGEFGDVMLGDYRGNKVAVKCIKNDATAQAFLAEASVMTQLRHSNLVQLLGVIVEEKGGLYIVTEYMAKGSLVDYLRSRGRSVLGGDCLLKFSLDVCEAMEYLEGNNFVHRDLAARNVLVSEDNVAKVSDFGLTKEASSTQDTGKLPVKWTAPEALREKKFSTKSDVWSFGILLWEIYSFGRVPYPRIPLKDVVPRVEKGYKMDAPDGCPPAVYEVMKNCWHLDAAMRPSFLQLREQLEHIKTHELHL
Description: Protein kinase panel selectivity screen, CSK. The test is classed as biochemical. To be noted: 1 μM compound; [ATP] 20 μM. The protocol:
as §1, §2

The next test deals with AMPK. Description: Protein kinase panel selectivity screen, AMPK. The test is classed as biochemical. The conditions noted are these: 1 μM compound; [ATP] 50 μM. The protocol:
as §1, §2

Another test addresses T5, PKCa (Homo sapiens, UniProt P17252).
T5 construct: Dundee University (panel)
Description: Protein kinase panel selectivity screen, PKCa. The test is classed as biochemical. To be noted: 1 μM compound; [ATP] 20 μM. The protocol:
as §1, §2

The subject of another test is Lck. Description: Protein kinase panel selectivity screen, Lck. The test is classed as biochemical. The conditions noted are these: 1 μM compound; [ATP] 50 μM. The protocol:
as §1, §2

Test [3] concerns β-catenin-LEF/TCF transcriptional activity in HEK293 cells. Description: β-Catenin-LEF/TCF regulated reporter gene assay. The test is classed as cell-based, human. To be noted: up to 10 μM. The text has this:
Furthermore, the effect of compound XIV on the β-catenin-dependent transcriptional activity, as measured in a luciferase based reporter gene assay, was studied.
HEK293 cells were transfected with either β-catenin-LEF/TCF-sensitive or β-catenin-LEF/TCF-insensitive reporter vector (Upstate Biotechnology, Inc.) using Lipofectamine Plus reagent (GibcoBRL) according to the manufacturer's instructions. The next day, cells were trypsinized, washed into serum-free medium, counted and seeded at 40,000 cells per well in a 96-well plate. Subsequent to cell attachment, LiCl or GSK-3 inhibitor compound were added to the medium to the required concentrations. Control cells were DMSO vehicle treated. 16 h after inhibitor addition, cells were analyzed for luciferase activity using the Steady-Glo Luciferase assay system (Promega) according to the manufacturer's instructions.
For orientation: In a reporter assay the amount or activity of a reporter protein is the signal.

T2 sequence (G1T8E2 1-432): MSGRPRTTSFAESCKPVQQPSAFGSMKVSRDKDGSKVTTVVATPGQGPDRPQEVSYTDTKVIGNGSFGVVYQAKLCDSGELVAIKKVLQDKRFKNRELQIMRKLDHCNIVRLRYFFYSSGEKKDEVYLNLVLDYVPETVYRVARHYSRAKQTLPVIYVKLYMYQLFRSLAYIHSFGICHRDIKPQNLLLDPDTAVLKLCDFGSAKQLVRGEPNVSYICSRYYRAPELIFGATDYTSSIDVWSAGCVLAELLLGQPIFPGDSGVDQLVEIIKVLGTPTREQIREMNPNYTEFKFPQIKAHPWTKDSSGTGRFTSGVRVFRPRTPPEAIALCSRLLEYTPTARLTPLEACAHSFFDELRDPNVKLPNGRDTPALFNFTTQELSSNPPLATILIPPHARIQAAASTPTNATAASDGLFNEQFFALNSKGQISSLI
T3 sequence (Q9HC98 whole entry, species assumed): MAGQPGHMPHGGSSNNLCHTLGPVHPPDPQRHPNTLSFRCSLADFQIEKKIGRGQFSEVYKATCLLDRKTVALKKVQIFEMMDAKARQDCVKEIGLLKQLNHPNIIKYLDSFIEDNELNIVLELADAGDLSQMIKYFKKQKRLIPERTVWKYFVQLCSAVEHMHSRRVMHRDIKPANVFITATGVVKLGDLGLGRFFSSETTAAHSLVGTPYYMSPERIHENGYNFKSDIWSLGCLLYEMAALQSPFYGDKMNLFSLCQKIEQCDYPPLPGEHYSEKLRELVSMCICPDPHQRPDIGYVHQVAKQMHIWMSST

`Clc1ccc(Nc2nccc(-c3nccs3)n2)cn1` [Compound XIV, (6-Chloro-pyridin-3-yl)-(4-thiazol-2-yl-pyrimidin-2-yl)-amine]: the activity at 1 µM at SGK is 79 ± 4%; on NEK6, 87 ± 6%; on CSK, 93 ± 8%; on PKCa it was 76%. On GSK-3β (read-out: Ki GSK3), the inhibitory constant (Ki) turned out to be 0.016 µM. The IC50 on GSK-3β (read-out: Kinase inhibition IC50 GSK3β) was determined as 0.176 µM. In the test on CK1, the “% Activity CK1” value is 69 ± 1%. Also, the “Levels of cellular β-catenin” value in test [1] is listed as “lack of β-catenin accumulation; also recorded: did not change significantly”. The “Phosphorylation of β-catenin at the GSK3-specific sites S33,37/T41” value in test [1] was “did not inhibit the phosphorylation”. In addition, the “Activation of GS compared with 40 mM LiCl” value in [2] (HEK293 cells, 5 μM) is given as “comparable to that induced by 40 mM LiCl”. In addition, the “Activity of glycogen synthase (fractional velocity)” value in [2] (HEK293 cells, ratio of activity at 0.1 and 10 mM glucose-6-phosphate) was “increased the activity of glycogen synthase”. Further, the EC50 in test [2] (Homo sapiens, HEK293, from dose-response curves, read-out: EC50 activation of glycogen synthase) came out at 1.5 ± 0.6 µM. Also, the fold induction at 0.1 µM in test [2] (Homo sapiens, HEK293 cells, 0.1 μM) turned out to be 0.9. The fold induction at 0.5 µM in test [2] (Homo sapiens, HEK293 cells, 0.5 μM) was determined as 1.1. For the same compound, in [2] (Homo sapiens, HEK293 cells, 1 μM), the fold induction at 1 µM was 1.6. Also, the fold induction at 5 µM is 3.3 in test [2] (Homo sapiens, HEK293 cells, 5 μM (Table 4)) and 3.7 in test [2] (Homo sapiens, In HEK293 cells at [compound] = 5 μM (Table 2)). Moreover, the “% Activity p70S6K” value in the test on p70S6K amounted to 91 ± 2%. For the same compound, the “% Activity PKA” value in the test on PKA came to 76 ± 3%. The “% Activity ROCK-II” value in the test with ROCK-II is listed as 87 ± 6%. In addition, the “% Activity AMPK” value with AMPK came to 82 ± 5%. In addition, the “% Activity Lck” value in the test with Lck is on record as 66 ± 5%. Besides, the “β-catenin transcriptional activity (luciferase reporter)” value in test [3] is “No induction”.
